Experimental data published in patent US7087642B2 (priority 1999, dated 2006).

Tested on: human PBMC T cells
Assay: cells
Type: cell-based
Conditions: Homo sapiens, 72 h, read-out: T-cells (IC50)

SMILES | IC50 [nM]
CCCC(COC)OC(=O)NCc1cccc(NC(=O)Nc2ccc(-c3cnco3)c(OC)c2)c1 (stereo not drawn) [Compound 38] | 100 to 1000
COc1cc(NC(=O)Nc2cccc(CNC(=O)OC(CC#N)C(C)C)c2)ccc1-c1cnco1 (stereo not drawn) [Compound 40] | > 1000
COCC(C)OC(=O)NCc1cccc(NC(=O)Nc2ccc(-c3cnco3)c(OC)c2)c1 (stereo not drawn) [Compound 41] | 100 to 1000
CCC(COC)OC(=O)NCc1cccc(NC(=O)Nc2ccc(-c3cnco3)c(OC)c2)c1 (stereo not drawn) [Compound 42] | 100 to 1000
CCC(CCO)OC(=O)NCc1cccc(NC(=O)Nc2ccc(-c3cnco3)c(OC)c2)c1 (stereo not drawn) [Compound 43] | 100 to 1000
CCC(CCCO)OC(=O)NCc1cccc(NC(=O)Nc2ccc(-c3cnco3)c(OC)c2)c1 (stereo not drawn) [Compound 44] | 100 to 1000
COc1cc(NC(=O)Nc2cccc(CNC(=O)OC(CCO)CCC#N)c2)ccc1-c1cnco1 (stereo not drawn) [Compound 45] | 100 to 1000
COc1cc(NC(=O)Nc2cccc(CNC(=O)OC(CC#N)C(C)(C)C)c2)ccc1-c1cnco1 (stereo not drawn) [Compound 46] | 100 to 1000
COc1cc(NC(=O)Nc2cccc(CNC(=O)O[C@H](C)CCC#N)c2)ccc1-c1cnco1 [Compound 47] | 100 to 1000
CCCN(CC)CC(OC(=O)NCc1cccc(NC(=O)Nc2ccc(-c3cnco3)c(OC)c2)c1)c1ccccc1 (stereo not drawn) [Compound 111] | 100 to 1000
CCN(CC1CC1)CC(OC(=O)NCc1cccc(NC(=O)Nc2ccc(-c3cnco3)c(OC)c2)c1)c1ccccc1 (stereo not drawn) [Compound 134] | 100 to 1000
CCC(COS(N)(=O)=O)OC(=O)NCc1cccc(NC(=O)Nc2ccc(-c3cnco3)c(OC)c2)c1 (stereo not drawn) [Compound 138] | 100 to 1000
CCN(CC)CC(OC(=O)NCc1cccc(NC(=O)Nc2ccc(-c3cnco3)c(OC)c2)c1)C1CCCCC1 (stereo not drawn) [Compound 157] | < 100
CCC(COC(N)=O)OC(=O)NCc1cccc(NC(=O)Nc2ccc(-c3cnco3)c(OC)c2)c1 (stereo not drawn) [Compound 159] | 100 to 1000
CCC(CO)OC(=O)N[C@@H](C)c1cccc(NC(=O)Nc2ccc(-c3cnco3)c(OC)c2)c1 (stereo partly drawn) [Compound 164] | 100 to 1000
CCC(CC#N)OC(=O)N[C@@H](C)c1cccc(NC(=O)Nc2ccc(C#N)c(OC)c2)c1 (stereo partly drawn) [Compound 168] | 100 to 1000
CCC(CC#N)OC(=O)N[C@H](C)c1cccc(NC(=O)Nc2ccc(-c3cnco3)c(OC)c2)c1 (stereo partly drawn) [Compound 171] | 100 to 1000
CCC(CC#N)OC(=O)N[C@H](C)c1cccc(NC(=O)Nc2ccc(C#N)c(OC)c2)c1 (stereo partly drawn) [Compound 172] | > 1000
CCC(CO)OC(=O)N[C@@H](C)c1cccc(NC(=O)Nc2ccc(C#N)c(OC)c2)c1 (stereo partly drawn) [Compound 176] | > 1000
CCC(CC#N)OC(=O)N[C@@H](C)c1cccc(NC(=O)Nc2ccc(C#N)c(Cl)c2)c1 (stereo partly drawn) [Compound 183] | 100 to 1000
COc1cc(NC(=O)Nc2cccc([C@H](C)NC(=O)OC3CCOC3)c2)ccc1C#N (stereo partly drawn) [Compound 184] | 100 to 1000

Same assay, conditions: read-out: T-cells (IC50)

SMILES | IC50 [nM]
CCN(CC)C[C@@H](CC#N)OC(=O)NCc1cccc(NC(=O)Nc2ccc(-c3cnco3)c(OC)c2)c1 [Compound 16] | > 1000
COc1cc(NC(=O)Nc2cccc(CNC(=O)O[C@H](CC#N)CN3CCOCC3)c2)ccc1-c1cnco1 [Compound 18] | > 1000
CCN(CC)C[C@H](CC#N)OC(=O)NCc1cccc(NC(=O)Nc2ccc(-c3cnco3)c(OC)c2)c1 [Compound 19] | 100 to 1000
COc1cc(NC(=O)Nc2cccc(CNC(=O)O[C@@H](CC#N)CN3CCOCC3)c2)ccc1-c1cnco1 [Compound 20] | 100 to 1000
COc1cc(NC(=O)Nc2cccc(CNC(=O)O[C@@H](C)CC#N)c2)ccc1-c1cnco1 [Compound 28] | 100 to 1000
COc1cc(NC(=O)Nc2cccc(CNC(=O)O[C@H](C)CC#N)c2)ccc1-c1cnco1 [Compound 29] | < 100
COc1cc(NC(=O)Nc2cccc(CNC(=O)O[C@H](CCN(C)C)c3ccccc3)c2)ccc1-c1cnco1 [Compound 39] | 100 to 1000

Tested on: human PBMC B cells
Assay: cells
Type: cell-based
Conditions: Homo sapiens, 72 h, read-out: B-cells (IC50)

SMILES | IC50 [nM]
CCCC(COC)OC(=O)NCc1cccc(NC(=O)Nc2ccc(-c3cnco3)c(OC)c2)c1 (stereo not drawn) [Compound 38] | 100 to 1000
COc1cc(NC(=O)Nc2cccc(CNC(=O)OC(CC#N)C(C)C)c2)ccc1-c1cnco1 (stereo not drawn) [Compound 40] | 100 to 1000
COCC(C)OC(=O)NCc1cccc(NC(=O)Nc2ccc(-c3cnco3)c(OC)c2)c1 (stereo not drawn) [Compound 41] | 100 to 1000
CCC(COC)OC(=O)NCc1cccc(NC(=O)Nc2ccc(-c3cnco3)c(OC)c2)c1 (stereo not drawn) [Compound 42] | 100 to 1000
CCC(CCO)OC(=O)NCc1cccc(NC(=O)Nc2ccc(-c3cnco3)c(OC)c2)c1 (stereo not drawn) [Compound 43] | 100 to 1000
CCC(CCCO)OC(=O)NCc1cccc(NC(=O)Nc2ccc(-c3cnco3)c(OC)c2)c1 (stereo not drawn) [Compound 44] | 100 to 1000
COc1cc(NC(=O)Nc2cccc(CNC(=O)OC(CCO)CCC#N)c2)ccc1-c1cnco1 (stereo not drawn) [Compound 45] | 100 to 1000
COc1cc(NC(=O)Nc2cccc(CNC(=O)OC(CC#N)C(C)(C)C)c2)ccc1-c1cnco1 (stereo not drawn) [Compound 46] | 100 to 1000
COc1cc(NC(=O)Nc2cccc(CNC(=O)O[C@H](C)CCC#N)c2)ccc1-c1cnco1 [Compound 47] | 100 to 1000
CCCN(CC)CC(OC(=O)NCc1cccc(NC(=O)Nc2ccc(-c3cnco3)c(OC)c2)c1)c1ccccc1 (stereo not drawn) [Compound 111] | 100 to 1000
CCN(CC1CC1)CC(OC(=O)NCc1cccc(NC(=O)Nc2ccc(-c3cnco3)c(OC)c2)c1)c1ccccc1 (stereo not drawn) [Compound 134] | 100 to 1000
CCC(COS(N)(=O)=O)OC(=O)NCc1cccc(NC(=O)Nc2ccc(-c3cnco3)c(OC)c2)c1 (stereo not drawn) [Compound 138] | 100 to 1000
CCN(CC)CC(OC(=O)NCc1cccc(NC(=O)Nc2ccc(-c3cnco3)c(OC)c2)c1)C1CCCCC1 (stereo not drawn) [Compound 157] | < 100
CCC(COC(N)=O)OC(=O)NCc1cccc(NC(=O)Nc2ccc(-c3cnco3)c(OC)c2)c1 (stereo not drawn) [Compound 159] | 100 to 1000
CCC(CO)OC(=O)N[C@@H](C)c1cccc(NC(=O)Nc2ccc(-c3cnco3)c(OC)c2)c1 (stereo partly drawn) [Compound 164] | 100 to 1000
CCC(CC#N)OC(=O)N[C@@H](C)c1cccc(NC(=O)Nc2ccc(C#N)c(OC)c2)c1 (stereo partly drawn) [Compound 168] | 100 to 1000
CCC(CC#N)OC(=O)N[C@H](C)c1cccc(NC(=O)Nc2ccc(-c3cnco3)c(OC)c2)c1 (stereo partly drawn) [Compound 171] | < 100
CCC(CO)OC(=O)N[C@@H](C)c1cccc(NC(=O)Nc2ccc(C#N)c(OC)c2)c1 (stereo partly drawn) [Compound 176] | > 1000
CCC(CC#N)OC(=O)N[C@@H](C)c1cccc(NC(=O)Nc2ccc(C#N)c(Cl)c2)c1 (stereo partly drawn) [Compound 183] | 100 to 1000
COc1cc(NC(=O)Nc2cccc([C@H](C)NC(=O)OC3CCOC3)c2)ccc1C#N (stereo partly drawn) [Compound 184] | 100 to 1000

Same assay, conditions: read-out: B-cells (IC50)

SMILES | IC50 [nM]
CCN(CC)C[C@@H](CC#N)OC(=O)NCc1cccc(NC(=O)Nc2ccc(-c3cnco3)c(OC)c2)c1 [Compound 16] | > 1000
COc1cc(NC(=O)Nc2cccc(CNC(=O)O[C@H](CC#N)CN3CCOCC3)c2)ccc1-c1cnco1 [Compound 18] | > 1000
CCN(CC)C[C@H](CC#N)OC(=O)NCc1cccc(NC(=O)Nc2ccc(-c3cnco3)c(OC)c2)c1 [Compound 19] | 100 to 1000
COc1cc(NC(=O)Nc2cccc(CNC(=O)O[C@@H](CC#N)CN3CCOCC3)c2)ccc1-c1cnco1 [Compound 20] | 100 to 1000
COc1cc(NC(=O)Nc2cccc(CNC(=O)O[C@@H](C)CC#N)c2)ccc1-c1cnco1 [Compound 28] | 100 to 1000
COc1cc(NC(=O)Nc2cccc(CNC(=O)O[C@H](C)CC#N)c2)ccc1-c1cnco1 [Compound 29] | < 100
COc1cc(NC(=O)Nc2cccc(CNC(=O)O[C@H](CCN(C)C)c3ccccc3)c2)ccc1-c1cnco1 [Compound 39] | 100 to 1000
CCC(CC#N)OC(=O)N[C@H](C)c1cccc(NC(=O)Nc2ccc(C#N)c(OC)c2)c1 (stereo partly drawn) [Compound 172] | > 1000

Target: IMPDH human type II (Homo sapiens, UniProt P12268)
Assay: biochemical
Conditions: read-out: Ki

SMILES | Ki [nM]
CCN(CC)C[C@@H](CC#N)OC(=O)NCc1cccc(NC(=O)Nc2ccc(-c3cnco3)c(OC)c2)c1 [Compound 16] | < 10
COc1cc(NC(=O)Nc2cccc(CNC(=O)O[C@H](CC#N)CN3CCOCC3)c2)ccc1-c1cnco1 [Compound 18] | < 10
CCN(CC)C[C@H](CC#N)OC(=O)NCc1cccc(NC(=O)Nc2ccc(-c3cnco3)c(OC)c2)c1 [Compound 19] | < 10
COc1cc(NC(=O)Nc2cccc(CNC(=O)O[C@@H](CC#N)CN3CCOCC3)c2)ccc1-c1cnco1 [Compound 20] | < 10
COc1cc(NC(=O)Nc2cccc(CNC(=O)O[C@@H](C)CC#N)c2)ccc1-c1cnco1 [Compound 28] | < 10
COc1cc(NC(=O)Nc2cccc(CNC(=O)O[C@H](C)CC#N)c2)ccc1-c1cnco1 [Compound 29] | < 10
CCCC(COC)OC(=O)NCc1cccc(NC(=O)Nc2ccc(-c3cnco3)c(OC)c2)c1 (stereo not drawn) [Compound 38] | < 10
COc1cc(NC(=O)Nc2cccc(CNC(=O)O[C@H](CCN(C)C)c3ccccc3)c2)ccc1-c1cnco1 [Compound 39] | < 10
COc1cc(NC(=O)Nc2cccc(CNC(=O)OC(CC#N)C(C)C)c2)ccc1-c1cnco1 (stereo not drawn) [Compound 40] | < 10
COCC(C)OC(=O)NCc1cccc(NC(=O)Nc2ccc(-c3cnco3)c(OC)c2)c1 (stereo not drawn) [Compound 41] | < 10
CCC(COC)OC(=O)NCc1cccc(NC(=O)Nc2ccc(-c3cnco3)c(OC)c2)c1 (stereo not drawn) [Compound 42] | < 10
CCC(CCO)OC(=O)NCc1cccc(NC(=O)Nc2ccc(-c3cnco3)c(OC)c2)c1 (stereo not drawn) [Compound 43] | < 10
CCC(CCCO)OC(=O)NCc1cccc(NC(=O)Nc2ccc(-c3cnco3)c(OC)c2)c1 (stereo not drawn) [Compound 44] | < 10
COc1cc(NC(=O)Nc2cccc(CNC(=O)OC(CCO)CCC#N)c2)ccc1-c1cnco1 (stereo not drawn) [Compound 45] | < 10
COc1cc(NC(=O)Nc2cccc(CNC(=O)OC(CC#N)C(C)(C)C)c2)ccc1-c1cnco1 (stereo not drawn) [Compound 46] | < 10
COc1cc(NC(=O)Nc2cccc(CNC(=O)O[C@H](C)CCC#N)c2)ccc1-c1cnco1 [Compound 47] | < 10
